Series [1] deals with NO release in LPS-stimulated RAW 264.7 macrophage cells. The series can be described thus: Inhibition of nitric oxide production (Griess nitrite assay) in LPS-activated RAW 264.7 macrophages. To be noted: LPS-stimulated RAW 264.7, 48 h; for NO inhibition: ¾ IC50 concentration; for IC50: Mus musculus, RAW264.7. The class given is cell-based, murine. Here is the method:
To evaluate the anti-inflammatory activity of the rearranged abietanes (5, 7, 17, and 19) along with their precursor 13, we conducted experiments on RAW 264.7 macrophage cells, a well-known model for screening anti-inflammatory compounds. The macrophages were stimulated with LPS to induce the maximum release of nitric oxide (NO) during the inflammatory response. Subsequently, the different compounds were incubated with the cells at sub-cytotoxic concentrations for 48 h (Figure 9). Next, we determined the concentration of nitrites in the culture medium, which was proportional to the amount of NO release.
Nitrite production was analyzed using the Griess reaction method. The concentration of nitrite was used as an indication of nitric oxide (NO) production. RAW 264.7 cells were seeded at 6 × 10^4 cells/well in 24-well cell culture plates, supplemented with 10 μg/mL of lipopolysaccharide (LPS). […] The Griess reaction was conducted by mixing 150 μL of supernatant test samples or sodium nitrite standard (0–120 μM) with 25 μL of Griess reagent A (0.1% n-(1-naphthyl) ethylenediamine dihydrochloride) and 25 μL of Griess reagent B (1% sulfanilamide in 5% of phosphoric acid) in a 96-well plate. The mixture was incubated at room temperature for 15 min, after which the absorbance was measured at 540 nm using an ELISA plate reader (Tecan Sunrise MR20–301, TECAN, Grödig, Austria). To determine the concentration of nitrite in each sample supernatant, the absorbance was referenced to the nitrite standard curve. To determine the percentage of NO production, the increase between the negative control (untreated cells) and the positive control (cells only with 10 μg/mL of LPS) was assigned 100%.
For orientation: The Griess reaction detects nitrite, a stable product of nitric oxide.

In series [2] the test system is human colon adenocarcinoma (HT29). The series can be described thus: MTT cell viability assay, HT29. The class given is cell-based. The following applies: Homo sapiens, HT-29, 72 h; for IC80: 80% growth inhibition; for IC50: read-out: IC50. From the text:
(§1) In this study, we employed the MTT (3-(4,5-dimethyl thiazol-2-yl)-2,5-diphenyltetrazolium bromide) colorimetric assay to evaluate the cytotoxic activity of selected abietanes (compounds 5, 7, 13, 17, and 19) against three tumor cell lines: human colon adenocarcinoma (HT29), human hepatocarcinoma (HepG2), and murine melanoma (B16–F10). The MTT assay relied on the conversion of MTT to formazan by viable cells, with the formazan concentration proportional to the number of viable cells. The concentrations required for 50 and 80% growth inhibition (IC50 and IC80) were determined for each compound.
(§2) The human colorectal adenocarcinoma cell line HT29 (ECACC no. 9172201; ATCC no. HTB-38), the human hepatocarcinoma cell line HepG2 (ECACC no. 85011430), the mouse melanoma cells B16–F10 (ATCC no. CRL-6475), and the murine monocyte/macrophage like RAW 264.7 cell line (ATCC no, TIB-71) were obtained from the cell bank of the University of Granada, Spain. The tumor cell lines were cultured in DMEM (Dulbecco’s modified Eagle’s medium) supplemented with 2 mM glutamine, 10% heat-inactivated FCS (fetal calf serum), and 50 μg/mL of gentamicin (for all cancer cell lines). The RAW 264.7 cell line was cultured in RPMI1640 medium, supplemented with 2 mM glutamine, 10% heat-inactivated FCS, and 50 μg/mL of gentamicin. All cell lines were incubated at 37 °C, in an atmosphere of 5% CO2 and 95% humidity. The culture media were changed every 48 h, and the confluent cultures were separated with a trypsin solution (0.25% EDTA). In all experiments, monolayer cells were grown to 80–90% confluence in sterile cell culture flasks.
(§3) The effects of the compounds on the cell viability were established using the MTT method (Sigma, St. Louis, MO, USA). The cytotoxicity of the compounds was assessed by measuring the absorbance of MTT dye staining of metabolically competent cells. The cells were cultivated in 96-well plates at 6.0 × 10^3 cells/mL for the HT29 and RAW 264.7 cell lines, at 5.0 × 10^3 cells/mL for B16–F10 cells, and 15.0 × 10^3 cells/mL for the HepG2 cell line, with a final volume of 200 μL per well being incubated with the different products (0–100 μg/mL). After 72 h, 100 μL of MTT solution (0.5 mg/mL) in 50% of PBS and 50% of the medium was added to each well. Following incubation for 1.5 h, formazan was resuspended in 100 μL of DMSO, and each concentration was tested in triplicate. The cell viability relative to the untreated control cells was determined by measuring the absorbance at 570 nm using an ELISA plate reader (Tecan Sunrise MR20–301, TECAN, Grödig, Austria).
For orientation: Tetrazolium dyes change colour on reduction, which living cells bring about.

In series [3] the test system is murine melanoma (B16–F10). The series can be described thus: MTT cell viability assay, B16-F10. The following applies: Mus musculus, 72 h; for IC80: 80% growth inhibition. The format is cell-based.
Source text: as §1, §2, §3

Series [4] has as its system human hepatocarcinoma (HepG2). The series can be described thus: MTT cell viability assay, HepG2. The following applies: Homo sapiens; for IC80: 72 h, 80% growth inhibition; for IC50: HepG2, 72 h, read-out: IC50. The class given is cell-based.
Source text: as §1, §2, §3

A short description of series [5]: RAW 264.7 cell viability (MTT). The following applies: mouse. The class given is cell-based, murine. The method, then: To evaluate the cytotoxic effects of the synthesized abietanes (5, 7, 13, 17, and 19) on RAW 264.7 monocyte/macrophage murine cells and to establish sub-cytotoxic concentrations for anti-inflammatory testing, we conducted cell viability assays using the MTT method. Each compound was tested at increasing concentration levels (0–100 μg/mL), and the IC50 values were determined by interpolation in the sigmoidal cytotoxicity curves (Figure 8). […] Additionally, sub-cytotoxic concentrations corresponding to ¾ IC50, ½ IC50, and ¼ IC50 were determined and selected for subsequent anti-inflammatory assays, ensuring that the observed effects were specifically attributed to the anti-inflammatory properties of the compounds rather than cytotoxicity. The human colorectal adenocarcinoma cell line HT29 (ECACC no. 9172201; ATCC no. HTB-38), the human hepatocarcinoma cell line HepG2 (ECACC no. 85011430), the mouse melanoma cells B16–F10 (ATCC no. CRL-6475), and the murine monocyte/macrophage like RAW 264.7 cell line (ATCC no, TIB-71) were obtained from the cell bank of the University of Granada, Spain. The tumor cell lines were cultured in DMEM (Dulbecco’s modified Eagle’s medium) supplemented with 2 mM glutamine, 10% heat-inactivated FCS (fetal calf serum), and 50 μg/mL of gentamicin (for all cancer cell lines). The RAW 264.7 cell line was cultured in RPMI1640 medium, supplemented with 2 mM glutamine, 10% heat-inactivated FCS, and 50 μg/mL of gentamicin. All cell lines were incubated at 37 °C, in an atmosphere of 5% CO2 and 95% humidity. The culture media were changed every 48 h, and the confluent cultures were separated with a trypsin solution (0.25% EDTA). In all experiments, monolayer cells were grown to 80–90% confluence in sterile cell culture flasks. The effects of the compounds on the cell viability were established using the MTT method (Sigma, St. Louis, MO, USA). The cytotoxicity of the compounds was assessed by measuring the absorbance of MTT dye staining of metabolically competent cells. The cells were cultivated in 96-well plates at 6.0 × 10^3 cells/mL for the HT29 and RAW 264.7 cell lines, at 5.0 × 10^3 cells/mL for B16–F10 cells, and 15.0 × 10^3 cells/mL for the HepG2 cell line, with a final volume of 200 μL per well being incubated with the different products (0–100 μg/mL). After 72 h, 100 μL of MTT solution (0.5 mg/mL) in 50% of PBS and 50% of the medium was added to each well. Following incubation for 1.5 h, formazan was resuspended in 100 μL of DMSO, and each concentration was tested in triplicate. The cell viability relative to the untreated control cells was determined by measuring the absorbance at 570 nm using an ELISA plate reader (Tecan Sunrise MR20–301, TECAN, Grödig, Austria).

The test system of series [6] is P388 leukemia cells. On the set-up: method as in doi:10.1076/phbi.37.2.148.6082. To be noted: cited from earlier work.
Details of series [7]: method as in PMID 29772301. To be noted: orthoquinones versus para-quinones; cell lines not given; read-out: cytotoxic activity; cited from earlier work.
For series [8], the system named is human carcinoma KB cells. On the set-up: method as in doi:10.1076/phbi.37.1.17.6321. To be noted: cited from earlier work.
In series [9] the test system is promyelocytic HL-60 cells. The arrangement: method as in PMID 16989306. To be noted: cited from earlier work.
Series [10] deals with human leukemia lymphoblastic NALM-6. On the set-up: method as in PMID 16989306. The following applies: cited from earlier work.
The mark [11] stands for this setting: RAW 264.7 monocyte/macrophage cells, RAW 264.7, MTT, 0–100 μg/mL, read-out: IC50 (cytotoxicity).

≈ marks a conversion by molar mass, not a printed value. Read-outs that look alike come from different tables or passages of the source.

As a reminder, the IC80 is the concentration needed for an effect of 80%.

For the compound `CC(C)=CCCc1c(C)ccc2c1C(=O)C(=O)C(C(C)C)=C2` [Compound 7, saprorthoquinone], the NO inhibition in series [1] turned out to be 100%. Moreover, the IC50 in [1] was found to be 1.3 ± 0.08 µg/mL (≈ 4.39 µM); in series [2], 7.82 ± 0.17 µg/mL (≈ 26.4 µM); in series [3], 6.89 ± 0.37 µg/mL (≈ 23.2 µM); in series [4], 21.2 ± 2.26 µg/mL (≈ 71.4 µM). Also, the figures for the IC80 in series [2], in series [3] and in series [4] were 10.6 ± 0.28 µg/mL (≈ 35.8 µM), 8.02 ± 0.52 µg/mL (≈ 27.1 µM) and 29.12 ± 0.21 µg/mL (≈ 98.2 µM), respectively. The IC50 at 72 h in [5] (setting [11]) was found to be 2.81 ± 0.45 µg/mL (≈ 9.48 µM). The cytotoxicity result in series [6] was “strong cytotoxicity”.

Turning to tebesinone B, the IC50 in series [7] is 5.47 to 10.3 µM.

On to aegyptinone A, for which, in [7], the IC50 was 2.11 to 8.19 µM.

Consider `C=C(C)CCCc1c(C)ccc2c1C(=O)C(=O)C(C(C)C)=C2` [aethiopinone], for which, in series [8], the cytotoxic effect entry is “potent cytotoxic effect”. Besides, the IC50 in series [9] is 4.8 µg/mL (≈ 16.2 µM); in series [10], 0.6 µg/mL (≈ 2.02 µM).

With `CC(C)C1=CC2=C(C(=O)C1=O)C1=CCCC(C)(C)[C@@]1(C)C=C2` [Compound 19, viridoquinone], the NO inhibition in [1] was determined as 100%. In addition, the IC50 in series [1] is 7.21 ± 0.9 µg/mL (≈ 24.3 µM); in series [2], 60.52 ± 0.28 µg/mL (≈ 204 µM); in series [3], 6.42 ± 0.35 µg/mL (≈ 21.7 µM); in series [4] it was 76.3 ± 2.14 µg/mL (≈ 257 µM). The concentration for an effect of 80% (IC80) in series [2] came to 74.7 ± 1.53 µg/mL (≈ 252 µM); in series [3], 9.14 ± 0.38 µg/mL (≈ 30.8 µM); in series [4] it was 101 ± 3.47 µg/mL (≈ 339 µM). The IC50 at 72 h in series [5] (setting [11]) stood at 9.29 ± 0.35 µg/mL (≈ 31.3 µM).

In [1], `CC(C)c1cc2c(c(O)c1O)C1=CC(=O)CC(C)(C)[C@@]1(C)C=C2` [Compound 17, pygmaeocin C] registered an NO inhibition of 91%. In addition, the IC50 was 1.73 ± 0.04 µg/mL (≈ 5.54 µM) in series [1], 15.3 ± 0.71 µg/mL (≈ 48.9 µM) in series [2], 10.1 ± 1.81 µg/mL (≈ 32.4 µM) in series [3] and 38.8 ± 1.55 µg/mL (≈ 124 µM) in series [4]. For the same compound, the 80% effect concentration (IC80) in series [2] turned out to be 24.4 ± 2.65 µg/mL (≈ 78 µM); in [3], 26.6 ± 4.82 µg/mL (≈ 85.2 µM); in series [4], 73.5 ± 2.06 µg/mL (≈ 235 µM). The same compound yielded an IC50 at 72 h in [5] of 6.27 ± 0.94 µg/mL (≈ 20.1 µM).
